The structures appear in SMILES notation. Some results are limits rather than exact numbers.

The melting point is the temperature, or range, at which the solid turns liquid. As for `CS(=O)(=O)OC[C@@H]1NC(=O)[C@@H]1n1c(-c2ccccc2)c(-c2ccccc2)oc1=O` (relative stereo), the melting point was 185 to 188 °C.

With `O=S1(=O)Cc2cc(Cl)ccc2Oc2ccccc21`, the melting point was 159 to 166 °C.

Regarding `Cc1nc2ccc(-c3ccc(OCC4(N)COC4)cc3)nn2c1-c1cnc(N)c(C(F)(F)F)c1`, the melting point lay within 198 to 200 °C.

Regarding `O=C1NC(=O)C(=Cc2csc(NC(c3ccccc3)(c3ccccc3)c3ccccc3)n2)S1`, the melting point lay in the range of 225 to 228 °C.

In the case of `CCC(=O)Nc1c([N+](=O)[O-])cnn1-c1ncc(Cl)cc1Cl`, the melting point fell in the range of 53 to 56 °C.

The compound `CC(C)c1cc(C(=O)Nc2ccc(C(=O)O)c(Cl)c2)sc1C(C)C` yielded a melting point of 222 to 223 °C.

The compound `CC(C)(C)c1cc([PH](=O)O)cc(C(C)(C)C)c1O` registered a melting point of 106 to 111 °C.

As for `COc1ccc(-c2cc(-c3ccc(-c4c(Cc5ccccc5)sc5ccccc45)cc3)ccc2OCC(=O)O)cc1OC`, the melting point is 95 to 97 °C.

In turn, `COC(=O)C(NS(=O)(=O)c1ccc(-c2ccc([N+](=O)[O-])cc2)cc1)C(C)C` (centres undefined) came in with a melting point of 144 to 146 °C.

`NC1CC2CCCC(C1)N2Cc1ccccc1` (centres undefined) displayed a melting point of 134 °C.

`CCCOCCOc1ccc(-c2ccc3c(c2)C=C(C(=O)OC)CCS3(=O)=O)cc1` had a melting point of 105 to 107 °C.

In turn, `O=C(CCl)N1CCC(c2noc3cc(F)ccc23)CC1` registered a melting point of 101 to 102 °C.

Turning to `CCOC1=NS(=O)(=O)C(C(=O)OCc2ccccc2)=C1N`, the melting point lay within 144 to 147 °C.

Regarding `Cc1nc(-n2cnn(Cc3ccc(C(F)(F)F)cc3)c2=O)sc1C(=O)NCc1cccnc1`, the melting point lay within 156 to 158 °C.

`N#Cc1c(C(=O)NC2CC2)cnn1-c1ccc(Cl)cc1` gave a melting point of 204 to 206 °C.

Regarding `CCCCn1c(=O)c(NC(=O)Nc2cc(Cc3ncc[nH]3)ccc2C(C)(C)C)c(-c2cccc(O)c2)c2cccnc21`, the melting point was in the range of 160 to 162 °C.

Take `Cc1ccc(C(C)(C)C)c(SC2=C(O)CC(CCc3ccccc3)(CCC(C)C)OC2=O)c1` (centres undefined): the melting point was 46 to 50 °C.

`CCNc1cc(Cl)nc(C#N)c1[N+](=O)[O-]` gave a melting point of 120 °C.

As to `COc1cc(-c2nc3ccc(O)cc3n2Cc2ccccc2Br)cc(OC)c1OC`, the melting point was determined as 208 °C.

As for `CS(=O)(=O)c1ccc(N2CCC3(CC2)OCCO3)cc1`, the melting point lay within 192 to 194 °C.

As for `O=S1(=O)NC(Cc2ccccc2)Nc2ccc(S(=O)(=O)N3CCCCC3)cc21` (centres undefined), the melting point lay in the range of 242 to 244 °C.

On to `CCOC(=O)C(=O)CC(=O)c1cn(Cc2ccc3ccccc3n2)c2ccccc2c1=O`, for which the melting point fell in the range of 237 to 238 °C.

Compound `CN(CCO)C(=O)Cc1ccccc1Cl` gave a melting point of 77 °C.

`CC(=O)c1ccc(NS(C)(=O)=O)c(Oc2ccccc2S(C)(=O)=O)c1` gave a melting point of 189 to 191 °C.

On to `CCCn1c(=S)[nH]c2ccsc2c1=O`, for which the melting point is above 230 °C.

In the case of `CCOC(=O)c1cncc(OC)c1CCCOc1cccnc1Oc1cccc(Cl)c1`, the melting point was in the range of 82 to 83 °C.

Consider `O=c1c(CCCc2cccnn2)cc2cccnc2n1-c1cccc([N+](=O)[O-])c1`, for which the melting point was 234 to 235 °C.

In turn, `N#Cc1c(N2CCC[C@@H]2CO)[nH]c2cccnc12` came in with a melting point of 207 to 209 °C.

As to `O=C(O)Cc1ccc(OCc2ccccc2C(=O)O)cc1`, the melting point fell in the range of 171 to 174 °C.

`O=C1Nc2ccccc2SC1CCCO` (centres undefined) displayed a melting point of 59 to 60 °C.

The compound `COc1ccc(C(Sc2cc(Oc3ccc(F)cc3)ccc2N)C(O)C(=O)O)cc1` (centres undefined) gave a melting point of 190 to 193 °C.

Regarding `OC1(c2ccccc2)Cc2ccccc2C1`, the melting point turned out to be 54 °C.

For `CCOC(=O)[C@H](Cc1ccc(O)cc1)NC(=O)c1c(F)cccc1F`, the melting point lay in the range of 149 to 150 °C.

Take `FC(F)(F)c1ccc(-n2nc(N3CCN(CC4CC4)CC3)c3ccccc32)cc1`: the melting point is 98 to 100 °C.

The record behind these values is a melting point compilation (Tetko et al.; mined from patent text by program, amines drawn as free bases though some values may be those of a salt).
